In patent publication US7572826B2, “Thiophene-carboxamide derivatives and their use as inhibitors of the enzyme IKK-2” (AstraZeneca AB, priority 2003, dated 2009) one finds IC50 data, which are given here for four compounds.

In one assay the target is T1, IKK-2 (Homo sapiens, UniProt O14920).
T1 sequence (O14920 1-756): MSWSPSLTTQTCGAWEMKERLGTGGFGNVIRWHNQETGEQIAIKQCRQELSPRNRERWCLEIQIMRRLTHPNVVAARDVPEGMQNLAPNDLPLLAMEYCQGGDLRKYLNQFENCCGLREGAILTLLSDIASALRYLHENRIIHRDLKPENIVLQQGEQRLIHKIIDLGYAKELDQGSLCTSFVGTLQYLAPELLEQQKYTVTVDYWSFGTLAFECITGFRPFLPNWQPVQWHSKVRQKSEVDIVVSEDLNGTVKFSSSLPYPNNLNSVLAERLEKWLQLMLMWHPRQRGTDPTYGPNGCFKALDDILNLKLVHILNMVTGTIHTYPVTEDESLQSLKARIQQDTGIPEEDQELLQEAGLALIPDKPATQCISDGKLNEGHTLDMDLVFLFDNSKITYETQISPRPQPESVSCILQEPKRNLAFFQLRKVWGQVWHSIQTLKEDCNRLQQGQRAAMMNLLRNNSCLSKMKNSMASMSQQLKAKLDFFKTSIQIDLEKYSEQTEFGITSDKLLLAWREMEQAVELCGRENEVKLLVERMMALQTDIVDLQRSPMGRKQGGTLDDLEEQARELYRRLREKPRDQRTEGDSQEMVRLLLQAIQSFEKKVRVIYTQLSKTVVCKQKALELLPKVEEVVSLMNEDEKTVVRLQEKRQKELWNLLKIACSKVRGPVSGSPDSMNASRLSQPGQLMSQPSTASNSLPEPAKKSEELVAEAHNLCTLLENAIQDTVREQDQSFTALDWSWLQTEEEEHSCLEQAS
The experiment in a line: IKK-2 filter kinase assay. The assay is classed as biochemical. The following applies: 1 μM ATP, 1-53 GST-IκB substrate, read-out: Inhibition of IKK-2 IC50. Here is the method:
The test compounds were dissolved to 10 mM in dimethylsulphoxide (DMSO). The compounds were then diluted 1 in 40 in kinase buffer (50 mM Tris, pH 7.4 containing 0.1 mM EGTA, 0.1 mM sodium orthovanadate and 0.1% β-mercaptoethanol). 1 in 3 serial dilutions were made from this solution with 2.5% DMSO in kinase buffer. 20 μl of compound dilution was added to wells of a 96 well plate in duplicate.
10 μl of a mixture of magnesium acetate, unlabelled ATP, and ^33P-labelled ATP was added to each well made such that the final concentration was 10 mM magnesium acetate, 1 μM ATP and 0.1 μCi ^33P ATP. […] The final reaction volume was 50 μl.
The kinase reactions were incubated at 21° C. for 80 minutes and the reaction stopped by precipitating the protein by the addition of an equal volume (50 μl) of 20% trichloroacetic acid (TCA). The precipitate was allowed to form for 10 minutes and then filtered onto a GF/C unifilter 96 well plate. Each filter was washed twice with approximately 1 ml 2% TCA. The filter plate was dried at 30-40° C. for 60 minutes, 20 μl scintillant was added to each well and the plate sealed and radioactivity counted on a Packard Topcount microplate scintillation counter.

Assay [1] has as its system human peripheral blood mononuclear cells (PBMCs). Put plainly: Inhibition of LPS-induced TNFα production by PBMCs. Type of assay: cell-based. The following applies: PBMC, inhibition of LPS-stimulated TNFα production. How it is done:
The effect of test compounds on nuclear factor kappa B (NFκB) activation in cells was assessed by measuring inhibition of tumour necrosis factor alpha (TNFα) production by human peripheral blood mononuclear cells (PBMCs) stimulated by bacterial lipopolysaccharide (LPS).
Human blood (250 ml), anticoagulated with heparin, was collected from healthy volunteers. Aliquots of blood (25 ml) were layered on 20 ml Lymphoprep (Nycomed) in 50 ml polypropylene centrifuge tubes. The tubes were centrifuged (Sorval RT600B) at 2,500 rpm for 30 minutes. The cloudy layer containing PBMCs was collected with a fine tipped Pasteur pipette, transferred into 8 clean polypropylene centrifuge tubes (approximately 10 ml per tube) and diluted to 50 ml with phosphate-buffered saline (PBS). These tubes were centrifuged at 2,000 rpm for 8 minutes. PBS (10 ml) was added to each cell pellet and the cells were gently re-suspended. The cells were pooled in 4 centrifuge tubes, PBS was added to each tube to make the volume up to 50 ml and the tubes were centrifuged at 1,400 rpm for 8 minutes. The cell pellets were again re-suspended in 10 ml PBS, pooled in 2 centrige tubes, the volume made up to 50 ml with PBS and the tubes centrifuged at 900 rpm for 10 minutes.
The final cell pellets were gently re-suspended in 10 ml tissue culture medium (RPMI containing 1% heat-inactivated human serum, L-glutamine and penicillin and streptomycin), combined into 1 tube and the volume made up to 30 ml with RPMI medium. The cells were counted and the cell suspension was diluted to 2.6×10^6 cells/ml.
Test compounds were dissolved in DMSO to 10 mM and diluted 1 in 250 (40 μM) with RPMI medium. The compounds were then serially diluted 1 in 3 with 0.4% DMSO in RPMI medium. Aliquots of test compound dilutions (50 μl) were transferred to the wells of a 96-well plate. Control wells contained 0.4% DMSO in RPMI instead of compound.
Aliquots of the cell suspension (100 μl) were added to each well and the plates incubated at 37° C. for 30 minutes. 50 μl of 40 μg/ml LPS (Sigma, LA130) was added to wells to stimulate TNFα production by the cells and the plates were incubated overnight at 37° C. RPMI medium (50 μl) was added to negative control wells instead of LPS. The final incubation volume was 200 μl.
Plates were centrifuged for 4 minutes at 1,200 rpm and supernatants were removed for measurement of TNFα concentration. Viability of the remaining cell pellet was measured using WST-1 reagent (Boehringer Mannheim, 1044807). […] The absorbance at 450 nm was then measured using a 96-well plate spectrophotometer.
TNFα in the supernatants (freshly harvested or stored frozen at −20° C.) were measured using an enzyme-linked immunosorbant assay (ELISA). […]

For the compound `NC(=O)Nc1sc(-c2ccc(CNCC(F)(F)F)cc2)cc1C(N)=O` [Example 1], the figures for the IC50 (at IKK-2; in assay [1]) were 3.6 nM and 420 nM, respectively.

For `CN(C)Cc1ccc(-c2cc(C(N)=O)c(NC(N)=O)s2)cc1` [Example 5, 2-[(Aminocarbonyl)amino]-5-{4-[dimethylaminomethyl]phenyl}thiophene-3-carboxamide], the IC50 on IKK-2 came out at 13 nM; in assay [1] it was 120 nM.

As for `COCCN(C)Cc1ccc(-c2cc(C(N)=O)c(NC(N)=O)s2)cc1` [Example 56], the IC50 at IKK-2 turned out to be 66 nM; in assay [1], 450 nM.

As to `NC(=O)Nc1sc(-c2ccc(CN(CCO)Cc3ccccc3)cc2)cc1C(N)=O` [Example 61, 2-[(Aminocarbonyl)amino]-5-[4-{([N-benzyl-N-(2-hydroxyethyl)]amino)methyl}phenyl]thiophene-3-carboxamide], the IC50 on IKK-2 amounted to 0.56 nM; in assay [1] it was 340 nM.
